Experimental data: patent US20240065994A1, “COMPOSITIONS AND METHODS FOR PREVENTING OR TREATING DISEASES OR DISORDERS ASSOCIATED WITH PROTEIN MISFOLDING” (priority 2020, published 2024)

Key:
glutathione = assay: Effect of BSO on blood glutathione concentration; type: in vivo, mice; conditions: after eight weeks on 15 mM BSO
Description: Animals: C57BL/6-Ins2^Akita/J (Akita) are an excellent model for Mutant-insulin Diabetes of Youth. Akita mice suffer from diabetes due to misfolded proinsulin, as the gene that codes for proinsulin (Ins2) is mutated. […] One male Akita mice was bred to female mice and the progeny were back-crossed to obtain enough number of heterozygous and wild-type male mice. The genotype of the mice was confirmed by using methods described previously. Briefly, the polymerase chain reaction product of the amplicons from the mutated region of the Ins 2 gene were subjected to restriction enzyme digestion and the products of the digestion were separated in agarose gels. Based on the number of fragments that resulted from the digestion, the genotypes of mice were confirmed. Only heterozygous male mice were used in the experiments. After two rounds of breeding, 12 heterozygous Akita and 12 wild-type Akita mice. After reaching 15-weeks of age, mice in each genotype were randomized into two groups of 6 animals each (n=6/group). […] Glutathione was determined as described in experimental methods section. […] Glutathione was determined by a colorimetric method based on an enzymatic recycling method using 5,5′-dithiobis-(2-nitrobenzoic acid) as described earlier (Teitze et al). Using a standard curve with known concentrations the glutathione concentrations were determined and expressed as μg/mL blood.

Akita mice = assay: Effect of BSO on fasting glucose; type: in vivo; conditions: 15 mM BSO in drinking water, measured before and 1, 3, 4, 7, 8 weeks after, persisted throughout the study
Description: Experimentation was done with Akita mice, which harbor a similar mutation in the proinsulin gene as human patients with MIDY, are used as a laboratory model for MIDY. […] The Akita strain is a monogenic model for phenotypes associated with type 1 diabetes. A spontaneous mutation in the insulin 2 gene leads to incorrect folding of the proinsulin protein producing toxicity in pancreatic beta-cells, reduced beta-cell mass and reduced insulin secretion. As a result, Akita mice suffer with glucose levels that are two to four-fold higher than healthy mice. […] Animals: C57BL/6-Ins2^Akita/J (Akita) are an excellent model for Mutant-insulin Diabetes of Youth. Akita mice suffer from diabetes due to misfolded proinsulin, as the gene that codes for proinsulin (Ins2) is mutated. […] One male Akita mice was bred to female mice and the progeny were back-crossed to obtain enough number of heterozygous and wild-type male mice. The genotype of the mice was confirmed by using methods described previously. […] Fasting glucose was determined using AlphaTrak-2 glucometer. […] Fasting (6 hr) blood glucose was determined from tail clips before starting the mice on BSO and 1, 3, 4, 7, and 8 weeks after treating with BSO. […]

Wild-type and Akita mice [1] = assay: Glucose tolerance test (GTT); type: in vivo; conditions: 15 mM BSO, fifth week, 0.85 g/Kg D-glucose i.p., 6 h fast
Description: (§1) Animals: C57BL/6-Ins2^Akita/J (Akita) are an excellent model for Mutant-insulin Diabetes of Youth. Akita mice suffer from diabetes due to misfolded proinsulin, as the gene that codes for proinsulin (Ins2) is mutated. […] One male Akita mice was bred to female mice and the progeny were back-crossed to obtain enough number of heterozygous and wild-type male mice. The genotype of the mice was confirmed by using methods described previously. Briefly, the polymerase chain reaction product of the amplicons from the mutated region of the Ins 2 gene were subjected to restriction enzyme digestion and the products of the digestion were separated in agarose gels. Based on the number of fragments that resulted from the digestion, the genotypes of mice were confirmed. Only heterozygous male mice were used in the experiments. After two rounds of breeding, 12 heterozygous Akita and 12 wild-type Akita mice. […] Body weight (see FIG. 1) and food consumption (see FIG. 2) was monitored weekly. […] Mice were intraperitoneally injected with 0.85 g/Kg body weight D-glucose and blood glucose was determined at specified intervals. […] Blood glucose was measured from tail clips using AlphaTrak-2 (Parsipanny, NJ,) glucometer and compatible strips. Blood glucose was measured at 0, 5, 15, 30, 60, 90, 120, 150, 180, and 210 min after injection. […]

Wild-type and Akita mice [2] = assay: Insulin tolerance test (ITT); type: in vivo; conditions: 15 mM BSO, third week, 1 U/Kg insulin i.p., 6 h fast
Description: as §1, with “1 U/Kg” for “0.85 g/Kg”, “of insulin” for “D-glucose”

[3] = Effect of BSO on food intake; type: in vivo, mice; conditions: 15 mM BSO in drinking water for eight weeks, measured weekly
Description: (§2) Animals: C57BL/6-Ins2^Akita/J (Akita) are an excellent model for Mutant-insulin Diabetes of Youth. Akita mice suffer from diabetes due to misfolded proinsulin, as the gene that codes for proinsulin (Ins2) is mutated. […] One male Akita mice was bred to female mice and the progeny were back-crossed to obtain enough number of heterozygous and wild-type male mice. The genotype of the mice was confirmed by using methods described previously. Briefly, the polymerase chain reaction product of the amplicons from the mutated region of the Ins 2 gene were subjected to restriction enzyme digestion and the products of the digestion were separated in agarose gels. Based on the number of fragments that resulted from the digestion, the genotypes of mice were confirmed. Only heterozygous male mice were used in the experiments. After two rounds of breeding, 12 heterozygous Akita and 12 wild-type Akita mice. After reaching 15-weeks of age, mice in each genotype were randomized into two groups of 6 animals each (n=6/group). All mice were given either 0 mM or 15 mM of D,L-Buthionine-(S,R)-sulfoximine (BSO, Toronto Research Chemicals Inc., ON, CA) administered in drinking water. […]
Experiment 2. […] Food intake was measured every week.
(§3) Body weight (see FIG. 1) and food consumption (see FIG. 2) was monitored weekly. […]

[4] = Effect of BSO on body weight; type: in vivo, mice; conditions: 15 mM BSO in drinking water for eight weeks, weighed weekly
Description: as §2
Experiment 1. […] Body weight was monitored every week.
as §3

CCCCS(=N)(=O)CC[C@H](N)C(=O)O (mixture of isomers) [BSO, D,L-Buthionine-(S,R)-sulfoximine]
effect on blood glutathione concentration (glutathione; Akita mice): decreased | effect on blood glutathione concentration (glutathione; wild-type mice): decreased | effect on fasting (6 hr) blood glucose (Akita mice): Decrease in glucose levels in Akita was evident within one week | glucose tolerance area under the curve decreased to (Wild-type and Akita mice [1]; Akita mice, baseline subtracted): less than 50% | effect on glucose tolerance area under the curve (Wild-type and Akita mice [1]; wild-type mice): did affect | effect on insulin tolerance area under the curve (Wild-type and Akita mice [2]; Akita mice): No effect | effect on insulin tolerance area under the curve (Wild-type and Akita mice [2]; wild-type mice): No effect | effect on food intake ([3]; Akita mice): does not affect | effect on food intake ([3]; wild-type mice): does not affect | effect on body weight ([4]; Akita mice): lack of the effect | effect on body weight ([4]; wild-type mice): lack of the effect
